Source: PubChem BioAssay (NCI)
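Test compounds were applied to cells in 96-well plates for 48 hours at 5 doses. Here, GI50 denotes the concentration required for 50% inhibition of growth. At the TGI there is no net growth.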

Legend:
Assay in all cases: DTP human tumour cell line panel, 48 h
[1] = system: 786-0 renal
[2] = system: A498 renal
[3] = system: A549 NSCLC
[4] = system: ACHN renal
[5] = system: BT-549 breast
[6] = system: CAKI-1 renal
[7] = system: CCRF-CEM leukemia
[8] = system: COLO 205 colon
[9] = system: DU-145 prostate
[10] = system: EKVX NSCLC
[11] = system: HCC-2998 colon
[12] = system: HCT-116 colon
[13] = system: HCT-15 colon
[14] = system: HOP-62 NSCLC
[15] = system: HOP-92 NSCLC
[16] = system: HS 578T breast
[17] = system: HT29 colon
[18] = system: IGROV1 ovarian
[19] = system: K-562 leukemia
[20] = system: KM12 colon
[21] = system: LOX IMVI melanoma
[22] = system: M14 melanoma
[23] = system: MALME-3M melanoma
[24] = system: MCF7 breast
[25] = system: MDA-MB-231 breast
[26] = system: MDA-MB-435
[27] = system: MOLT-4 leukemia
[28] = system: NCI-H226 lung
[29] = system: NCI-H23 lung
[30] = system: NCI-H460 lung
[31] = system: NCI-H522 lung
[32] = system: NCI/ADR-RES ovarian
[33] = system: OVCAR-3 ovarian
[34] = system: OVCAR-4 ovarian
[35] = system: OVCAR-5 ovarian
[36] = system: OVCAR-8 ovarian
[37] = system: PC-3 prostate
[38] = system: RPMI-8226 leukemia
[39] = system: RXF 393 renal
[40] = system: SF-268 CNS
[41] = system: SF-295 CNS
[42] = system: SF-539 CNS
[43] = system: SK-MEL-2 melanoma
[44] = system: SK-MEL-28 melanoma
[45] = system: SK-MEL-5 melanoma
[46] = system: SK-OV-3 ovarian
[47] = system: SN12C renal
[48] = system: SNB-19 CNS
[49] = system: SNB-75 CNS
[50] = system: SR leukemia
[51] = system: SW-620 colon
[52] = system: T-47D breast
[53] = system: TK-10 renal
[54] = system: U251 CNS
[55] = system: UACC-257 melanoma
[56] = system: UACC-62 melanoma
[57] = system: UO-31 renal
[58] = system: HL-60(TB) leukemia

`CCC(=O)OCC1OC(n2cnc3c(=S)nc(N)[nH]c32)C(OC(=O)CC)C1OC(=O)CC` (stereo not given) was tested, and the GI50 [1] was 8.09 µM, the TGI [1] was greater than 100 µM and the GI50 [2] was 15.6 µM. The TGI [2] was greater than 100 µM, the GI50 [3] was 71.8 µM and the TGI [3] was greater than 100 µM. It also gave a GI50 [4] of 5.28 µM, a TGI [4] of 93.1 µM and a GI50 [5] of 5.42 µM. It also gave a TGI [5] greater than 100 µM, a GI50 [6] of 3.52 µM and a TGI [6] greater than 100 µM. For the same molecule, the GI50 [7] was 2.12 µM, the TGI [7] was 28.2 µM and the GI50 [8] was 3.57 µM. The TGI [8] was 18.4 µM, the GI50 [9] was 2.51 µM and the TGI [9] was 47.7 µM. It also gave a GI50 [10] of 10.7 µM, a TGI [10] greater than 100 µM and a GI50 [11] of 15.2 µM. For the same molecule, the TGI [11] was 73.1 µM, the GI50 [12] was 4.25 µM and the TGI [12] was greater than 100 µM. The GI50 [13] was 9.39 µM, the TGI [13] was greater than 100 µM and the GI50 [14] was 2.71 µM. For the same molecule, the TGI [14] was 67.3 µM, the GI50 [15] was 0.892 µM and the TGI [15] was 20.9 µM. For the same molecule, the GI50 [16] was 23.8 µM, the TGI [16] was greater than 100 µM and the GI50 [17] was 14.7 µM. It also gave a TGI [17] greater than 100 µM, a GI50 [18] of 7.49 µM and a TGI [18] of 44.5 µM. The GI50 [19] was 6.69 µM, the TGI [19] was greater than 100 µM and the GI50 [20] was 6.06 µM. For the same molecule, the TGI [20] was 44.4 µM, the GI50 [21] was 2.17 µM and the TGI [21] was greater than 100 µM. For the same molecule, the GI50 [22] was 2.33 µM, the TGI [22] was 24.6 µM and the GI50 [23] was 2.45 µM. The TGI [23] was greater than 100 µM, the GI50 [24] was 3.57 µM and the TGI [24] was 41.7 µM. It also gave a GI50 [25] of 5.44 µM, a TGI [25] greater than 100 µM and a GI50 [26] of 4.73 µM. It also gave a TGI [26] greater than 100 µM, a GI50 [27] of 5.31 µM and a TGI [27] greater than 100 µM. It also gave a GI50 [28] of 2.62 µM, a TGI [28] greater than 100 µM and a GI50 [29] of 9.73 µM. It also gave a TGI [29] greater than 100 µM, a GI50 [30] of 6.62 µM and a TGI [30] greater than 100 µM. It also gave a GI50 [31] of 2.89 µM, a TGI [31] of 18.6 µM and a GI50 [32] of 14.8 µM. The TGI [32] was greater than 100 µM, the GI50 [33] was 3.03 µM and the TGI [33] was 17.7 µM. For the same molecule, the GI50 [34] was 4.95 µM, the TGI [34] was 81.3 µM and the GI50 [35] was 9.15 µM. The TGI [35] was greater than 100 µM, the GI50 [36] was 7.1 µM and the TGI [36] was greater than 100 µM. For the same molecule, the GI50 [37] was 5.2 µM, the TGI [37] was greater than 100 µM and the GI50 [38] was 3.79 µM. It also gave a TGI [38] of 67.2 µM, a GI50 [39] of 6.06 µM and a TGI [39] greater than 100 µM. The GI50 [40] was 3.95 µM, the TGI [40] was greater than 100 µM and the GI50 [41] was 5.27 µM. For the same molecule, the TGI [41] was greater than 100 µM, the GI50 [42] was 4.88 µM and the TGI [42] was 52.1 µM. The GI50 [43] was 2.89 µM, the TGI [43] was 46.4 µM and the GI50 [44] was 37.5 µM. For the same molecule, the TGI [44] was greater than 100 µM, the GI50 [45] was 13.9 µM and the TGI [45] was 34 µM. The GI50 [46] was 2.36 µM, the TGI [46] was 14.5 µM and the GI50 [47] was 12.4 µM. The TGI [47] was greater than 100 µM, the GI50 [48] was 80.9 µM and the TGI [48] was greater than 100 µM. The GI50 [49] was 3 µM, the TGI [49] was 88.9 µM and the GI50 [50] was 0.828 µM. It also gave a TGI [50] greater than 100 µM, a GI50 [51] of 16.3 µM and a TGI [51] greater than 100 µM. The GI50 [52] was 3.17 µM, the TGI [52] was 43.8 µM and the GI50 [53] was 3.63 µM. For the same molecule, the TGI [53] was greater than 100 µM, the GI50 [54] was 21.5 µM and the TGI [54] was greater than 100 µM. The GI50 [55] was 35.4 µM, the TGI [55] was greater than 100 µM and the GI50 [56] was 2.29 µM. It also gave a TGI [56] of 14.4 µM, a GI50 [57] of 1.97 µM and a TGI [57] of 54.2 µM.

Work on `CCCCc1ccc(NS(=O)(=O)c2cc3c4c(c2)CCN4C(=O)CC3)cc1` yielded a GI50 [1] of 17.9 µM, a TGI [1] of 74.6 µM and a GI50 [2] of 5.82 µM. For the same molecule, the TGI [2] was 37.5 µM, the GI50 [4] was 15.7 µM and the TGI [4] was greater than 100 µM. For the same molecule, the GI50 [5] was 18 µM, the TGI [5] was greater than 100 µM and the GI50 [6] was 8.49 µM. It also gave a TGI [6] of 78.5 µM, a GI50 [8] of 25.1 µM and a TGI [8] of 87.2 µM. For the same molecule, the GI50 [9] was 35.5 µM, the TGI [9] was greater than 100 µM and the GI50 [11] was 89.5 µM. It also gave a TGI [11] greater than 100 µM, a GI50 [12] of 17.5 µM and a TGI [12] greater than 100 µM. It also gave a GI50 [13] of 17 µM, a TGI [13] greater than 100 µM and a GI50 [58] of 12.2 µM. For the same molecule, the TGI [58] was 58.3 µM, the GI50 [14] was 28.5 µM and the TGI [14] was 94.1 µM. The GI50 [15] was 9.27 µM, the TGI [15] was 36.4 µM and the GI50 [16] was 15.2 µM. The TGI [16] was 61.2 µM, the GI50 [17] was 32.5 µM and the TGI [17] was greater than 100 µM. It also gave a GI50 [18] of 44.4 µM, a TGI [18] greater than 100 µM and a GI50 [19] of 9.3 µM. It also gave a TGI [19] greater than 100 µM, a GI50 [20] of 26.9 µM and a TGI [20] greater than 100 µM. For the same molecule, the GI50 [21] was 35.1 µM, the TGI [21] was greater than 100 µM and the GI50 [22] was 19.8 µM. It also gave a TGI [22] greater than 100 µM, a GI50 [23] of 35.4 µM and a TGI [23] greater than 100 µM. For the same molecule, the GI50 [24] was 9.94 µM, the TGI [24] was greater than 100 µM and the GI50 [25] was 16.1 µM. For the same molecule, the TGI [25] was greater than 100 µM, the GI50 [26] was 16.9 µM and the TGI [26] was greater than 100 µM. For the same molecule, the GI50 [27] was 11.2 µM, the TGI [27] was 77.6 µM and the GI50 [28] was 15.9 µM. It also gave a TGI [28] greater than 100 µM, a GI50 [29] of 10.6 µM and a TGI [29] greater than 100 µM. For the same molecule, the GI50 [30] was 28.2 µM, the TGI [30] was greater than 100 µM and the GI50 [32] was 7.97 µM. The TGI [32] was greater than 100 µM, the GI50 [33] was 22.6 µM and the TGI [33] was greater than 100 µM. For the same molecule, the GI50 [34] was 25.1 µM, the TGI [34] was greater than 100 µM and the GI50 [35] was 35.8 µM. The TGI [35] was greater than 100 µM, the GI50 [36] was 19.7 µM and the TGI [36] was greater than 100 µM. For the same molecule, the GI50 [37] was 11.7 µM, the TGI [37] was greater than 100 µM and the GI50 [38] was 7.79 µM. It also gave a TGI [38] of 57 µM, a GI50 [39] of 16.1 µM and a TGI [39] of 62.5 µM. The GI50 [40] was 30.3 µM, the TGI [40] was greater than 100 µM and the GI50 [41] was 13.4 µM. For the same molecule, the TGI [41] was 93.8 µM, the GI50 [42] was 24.4 µM and the TGI [42] was greater than 100 µM. The GI50 [43] was 17.5 µM, the TGI [43] was 63.6 µM and the GI50 [44] was 39.3 µM. For the same molecule, the TGI [44] was greater than 100 µM, the GI50 [45] was 8.25 µM and the TGI [45] was 45.4 µM. For the same molecule, the GI50 [46] was 34.9 µM, the TGI [46] was greater than 100 µM and the GI50 [47] was 34.6 µM. The TGI [47] was greater than 100 µM, the GI50 [48] was 29.8 µM and the TGI [48] was greater than 100 µM. For the same molecule, the GI50 [49] was 18.4 µM, the TGI [49] was 78 µM and the GI50 [50] was 7.35 µM. The TGI [50] was greater than 100 µM, the GI50 [51] was 33.5 µM and the TGI [51] was greater than 100 µM. It also gave a GI50 [52] of 5.48 µM, a TGI [52] of 72.1 µM and a GI50 [53] of 15.1 µM. For the same molecule, the TGI [53] was 55 µM, the GI50 [54] was 23.5 µM and the TGI [54] was greater than 100 µM. The GI50 [56] was 6.1 µM, the TGI [56] was 65.2 µM and the GI50 [57] was 12.8 µM. The TGI [57] was greater than 100 µM.
